Experiment [1] relates to SiaT9 (α-2,3-sialyltransferase). As to the kind of experiment: In vitro sialyltransferase activity assay with acceptor substrates, product detected by thin layer chromatography. It is filed as biochemical, Vibrio sp. JT-FAJ-16. Set-up: key to Formation of sialylated reaction product, SiaT9: +: A sialylated reaction product was detectable.; −: A sialylated reaction product was not detectable. The conditions noted are these: TLC; for Formation of sialylated reaction product, SiaT9: E. coli protein extract, 10 mM CMP-Neu5Ac, 5 to 20 mM acceptor substrate, 16 hours; for Sialylation of acceptor substrate by SiaT9: in vitro assay, summary of Table 3. The procedure: (§1) The E. coli strains harboring the plasmids for siaT9 (α-2,3-sialyltransferase) and siaT18 (α-2,6-sialyltransferase) expression were grown at 30° C. in 100 ml shake flasks filled with 20 ml of 2YT medium supplemented with ampicillin 100 μg ml^−1. When the cultures reached an OD600 of 0.1 to 0.3, gene expression was induced by addition of 0.3 mM IPTG and the incubation was continued for 12 to 16 hours. Cells were harvested by centrifugation and mechanically disrupted in a defined volume of 50 mM Tris-HCl pH7.5 using glass beads. The protein extract was kept on ice until the assay started. The in vitro assay was carried out in a total volume of 25 μl including 50 mM Tris-HCl PH7.5, 5 mM MgCl2, 10 mM CMP-Neu5Ac and 5 to 20 mM of the appropriate acceptor substrates. The assay started with the addition of 3 μl protein extract and continued for 16 hours. Formation of sialylated oligosaccharides resulting from the activity of the sialyltransferases was determined by thin layer chromatography.
(§2) Therefore, samples were applied on Silica Gel 60 F254 (Merck KGaA, Darmstadt, Germany)-plates. A mixture of butanol:acetone:acetic acid:H2O (35/35/7/23 (v/v/v/v)) was used as mobile phase. For detection of the separated substances, the TLC plate was soaked with thymol reagent (0.5 g thymol solved in 95 ml ethanol, 5 ml sulfuric acid added) and heated. Sialylated reaction products run slower than their acceptor substrates.
(§3) Table 3: In vitro analyses determining sialyltransferase activities of two exemplary sialyltransferases depending on the supplied acceptor substrate. The formation of sialylated saccharides was determined by thin layer chromatography. (+) A sialylated reaction product was detectable. (−) A sialylated reaction product was not detectable.

The subject of experiment [2] is SiaT18 (α-2,6-sialyltransferase). Described as above. Set-up: key to Formation of sialylated reaction product, SiaT18: +: A sialylated reaction product was detectable.; −: A sialylated reaction product was not detectable. It is filed as biochemical, Photobacterium leiognathi JT-SHIZ-119. The conditions noted are these: TLC; for Formation of sialylated reaction product, SiaT18: E. coli protein extract, 10 mM CMP-Neu5Ac, 5 to 20 mM acceptor substrate, 16 hours; for Sialylation of acceptor substrate by SiaT18: in vitro assay, summary of Table 3. The procedure: as §1, §2, §3

Four molecules from patent US12600997B2, “Fermentative production of sialylated saccharides” (priority 2018, dated 2026) can be followed below.

In the case of `O=C[C@H](O)[C@@H](O)[C@@H](O)[C@H](O)CO` [Galactose], in experiment [1], the “Formation of sialylated reaction product, SiaT9” value (shortened to “Formation … SiaT9”) is reported as “+” and the “Sialylation of acceptor substrate by SiaT9” value is reported as “capable to sialylate”. Further, in experiment [2], the “Formation of sialylated reaction product, SiaT18” value (“Formation … SiaT18” below) is on record as “+” and the “Sialylation of acceptor substrate by SiaT18” value is “capable to sialylate”.

For the molecule `CC(=O)N[C@H]1[C@H](O[C@H]2[C@@H](O)[C@@H](CO)O[C@@H](O[C@H]3[C@H](O)[C@@H](O)C(O)O[C@@H]3CO)[C@@H]2O)O[C@H](CO)[C@@H](O)[C@@H]1O[C@@H]1O[C@H](CO)[C@H](O)[C@H](O)[C@H]1O` (stereo partly drawn) [Lacto-N-tetraose], the “Formation … SiaT9” value in experiment [1] is given as “+”. Also, the “Formation … SiaT18” value in experiment [2] was “+”.

Turning to `OC[C@H]1O[C@@H](O[C@H]2[C@H](O)[C@@H](O)C(O)O[C@@H]2CO)[C@H](O)[C@@H](O)[C@H]1O` (stereo partly drawn) [Lactose], in experiment [1], the “Formation … SiaT9” value is on record as “+”. Moreover, the “Formation … SiaT18” value in experiment [2] is “+”.

`OC[C@H]1O[C@@](CO)(O[C@H]2O[C@H](CO)[C@@H](O)[C@H](O)[C@H]2O)[C@@H](O)[C@@H]1O` [Sucrose]: in experiment [1], the “Formation … SiaT9” value is “−” and the “Sialylation of acceptor substrate by SiaT9” value is listed as “No sialylated oligosaccharide was detectable”. Further, in experiment [2], the “Formation … SiaT18” value is “−” and the “Sialylation of acceptor substrate by SiaT18” value is reported as “No sialylated oligosaccharide was detectable”.
